≈ marks a conversion by molar mass, not a printed value.
How the values were obtained:
in vitro [1] = settings: human, Caco-2
Description: Efflux ratio of permeability in human Caco2 cells measured up to 2 hrs by LC-MS/MS analysis or scintillation counting method

[2] = Chemical stability of the compound in MeOH/HCl solution at pH <1 assessed as compound decomposition measured after 1 day by UV-RP-HPLC analysis; type: physicochemical; settings: read-out: Drug degradation
physchem [3] = settings: octanol/water, pH 11
Description: Octanol/water partition coefficient, log D of the compound at pH 11

physchem [4] = settings: pH 6.8 buffer
in vitro [5] = settings: human, liver microsomes
Description: Half life in human liver microsomes at 1 uM incubated prior to NADPH addition by LC-MS/MS analysis

in vitro [6] = settings: human, Caco-2; remark: listed apart in the source
Description: Permeability across apical to basolateral side in human Caco2 cells measured up to 2 hrs by LC-MS/MS analysis or scintillation counting method

[7] = 168 h
Description: Chemical stability of the compound in MeOH/NH3 solution at pH >10 assessed as compound decomposition measured after 7 days by UV-RP-HPLC analysis

physchem [8] = settings: pH 6.8 buffer; remark: listed apart in the source
in vitro [9] = settings: human, liver microsomes; remark: listed apart in the source
Description: Stability in human liver microsomes at 1 uM incubated prior to NADPH addition by LC-MS/MS analysis relative to hepatic blood flow

physchem [10] = settings: octanol/water, pH 2
Description: Octanol/water partition coefficient, log D of the compound at pH 2

physchem [11] = settings: MeOH/HCl solution
Description: Chemical stability of the compound in MeOH/HCl solution at pH <1 assessed as compound decomposition measured after 7 days by UV-RP-HPLC analysis

[12] = 24 h
Description: Chemical stability of the compound in MeOH/NH3 solution at pH >10 assessed as compound decomposition measured after 1 day by UV-RP-HPLC analysis

in vitro [13] = settings: human, plasma
Description: Protein binding in human plasma

[14] = Basic dissociation constant, pKb of the compound by UV absorption spectra analysis or potentiometric titration technique; type: physicochemical

Row | Compound | efflux ratio at 2 h (in vitro [1]) | degraded at 24 h [2] [%] | logD (physchem [3]) | solubility thermodynamic at 24 h (physchem [4]) [µg/mL] | half-life at 1 µM (in vitro [5]) [h] | Papp A→B at 2 h (in vitro [6]) [×10⁻⁶ cm/s] | Drug degradation [7] [%] | solubility thermodynamic at 24 h (physchem [8]) [µg/mL] | hepatic extraction ratio at 1 µM (in vitro [9]) | logD (physchem [10]) | degraded at 168 h (physchem [11]) [%] | Drug degradation [12] [%] | fraction unbound (in vitro [13]) | pKb [14]
1 | CN1CCCOP1(=O)c1ccc(C(F)(F)F)cc1 (stereo not given) | 0.5 | > 90 | 1.9 | 53 (≈ 190 µM) | > 2.17 | 64 | < 10 | 7500 (≈ 26900 µM) | < 0.23 | 2.5 |  |  |  | 
2 | CC1(C)COP(=O)(c2ccc(C(F)(F)F)cc2)OC1 | 0.6 |  | 2.6 | > 67 | > 2.17 | 73 |  | 2800 (≈ 9520 µM) | < 0.23 | 3.1 | < 10 | > 90 |  | 
3 | CN1CCCN(C)P1(=O)c1ccc(C(F)(F)F)cc1 | 0.5 | > 90 | 2.7 | > 68 | > 2.17 | 81 | < 10 | 11100 (≈ 38000 µM) | < 0.23 | 3 |  |  |  | 
4 | Cc1ccc(NC(=O)c2ccc(P(C)(C)=O)cc2)cc1Nc1nccc(-c2cccnc2)n1 | 16 |  | 1.5 | 77 (≈ 168 µM) | > 2.17 | 0.1 |  | 20 (≈ 43.7 µM) | < 0.23 | 0.4 |  |  | 0.163 | 
5 | O=S1(c2ccc(C(F)(F)F)cc2)=NCCCC1 (stereo not given) | 0.7 |  | 1.8 | > 59 |  | 84 |  | 4700 (≈ 17900 µM) |  | 0.1 |  |  |  | 3.8
6 | CS(=N)(=O)c1ccc(C(F)(F)F)cc1 (stereo not given) | 0.7 |  | 0.9 | > 50 |  | 88 |  | 9100 (≈ 40800 µM) |  | 0.8 |  |  |  | 2.5
7 | CN1CCP(=O)(c2ccc(C(F)(F)F)cc2)CC1 | 0.7 |  | 0.9 | > 66 | > 2.17 | 52 | < 10 | > 30000 | < 0.23 | 0 | < 10 |  |  | 6.3
8 | CCOP(=O)(O)c1ccc(C(=O)Nc2ccc(C)c(Nc3nccc(-c4cccnc4)n3)c2)cc1 |  |  | -0.6 | > 122 | > 2.17 | < 0.1 |  | 1100 (≈ 2250 µM) | < 0.23 | 1 |  |  | 0.046 | 
9 | Cc1ccc(NC(=O)c2ccc(P(C)(=O)O)cc2)cc1Nc1nccc(-c2cccnc2)n1 |  |  | -0.6 | > 115 | > 2.17 | < 0.1 |  | > 10000 | < 0.23 | 0.6 |  |  | 0.119 | 
10 | CNS(=N)(=O)c1ccc(C(F)(F)F)cc1 (stereo not given) | 0.9 |  | 1 | > 54 |  | 70 |  | 6900 (≈ 29000 µM) |  | 0.8 |  |  |  | 2.4
11 | CCOP(=O)(OCC)c1ccc(C(=O)Nc2ccc(C)c(Nc3nccc(-c4cccnc4)n3)c2)cc1 | 1.6 |  | 2.8 | 1 (≈ 1.93 µM) | 0.283 | 18 |  | < 1 | 0.7 | 1.5 |  |  | 0.019 | 
12 | CC(C)N1CCP(=O)(c2ccc(C(F)(F)F)cc2)CC1 | 0.5 |  | 2 | > 68 | > 2.17 | 84 | < 10 | 23000 (≈ 75300 µM) | < 0.23 | 0.2 | < 10 |  |  | 7
13 | O=P1(c2ccc(C(F)(F)F)cc2)OCCCO1 | 0.4 |  | 1.5 | > 66 | > 2.17 | 95 | 70 | 8800 (≈ 33100 µM) | < 0.23 | 2.1 | < 10 | > 90 |  | 
14 | O=P1(c2ccc(C(F)(F)F)cc2)NCCCO1 (stereo not given) | 0.7 | > 90 | 1.3 | > 60 | > 2.17 | 57 |  |  | < 0.23 | 2 |  | > 90 |  | 
15 | Cc1ccc(NC(=O)c2ccc(P(=O)(O)O)cc2)cc1Nc1nccc(-c2cccnc2)n1 |  |  | -1 | > 115 | > 2.17 | < 0.3 |  | 700 (≈ 1520 µM) | < 0.23 | 0.4 |  |  | 0.021 | 
16 | CC(C)P(=O)(c1ccc(C(F)(F)F)cc1)C(C)C | 0.5 |  | 2.8 | > 61 | > 2.17 | 110 | < 10 | 22200 (≈ 79800 µM) | < 0.23 | 3.1 | < 10 |  |  | 
17 | O=P1(c2ccc(C(F)(F)F)cc2)CCNCC1 | 1.1 |  | 0.5 | > 61 | > 2.17 | 13 | < 10 | 28000 (≈ 106000 µM) | < 0.23 | 0 | < 10 |  |  | 6.9
18 | CCOP(=O)(OCC)c1ccc(C(F)(F)F)cc1 | 0.6 |  | 3.2 | > 61 | > 2.17 | 95 | < 10 | 1300 (≈ 4610 µM) | < 0.23 | 3.4 | < 10 |  |  | 
19 | CCP(=O)(CC)c1ccc(C(F)(F)F)cc1 | 0.7 |  | 2 | > 60 | > 2.17 | 88 | < 10 | 22500 (≈ 89900 µM) | < 0.23 | 2.3 | < 10 |  |  | 
20 | CN1CCN(C)P1(=O)c1ccc(C(F)(F)F)cc1 |  | > 90 | 2 | > 64 |  |  | < 10 | > 30000 |  |  |  |  |  | 
21 | O=P1(c2ccc(C(F)(F)F)cc2)NCCCN1 | 0.7 | > 90 | 1.1 | > 61 | > 2.17 | 42 | < 10 | 12300 (≈ 46600 µM) | < 0.23 |  |  |  |  | 
